System: Stage III Colon Cancer
Assay: Time to tumor recurrence in patients with stage III colon cancer, by type of adjuvant therapy (retrospective, log-rank test)
Type: in vivo, human
Method: Methods and Patients: One hundred and twenty five patients with stage III colon cancer who were treated with 5-FU-based adjuvant chemotherapy at the University of Southern California/Norris Comprehensive Cancer Center (USC/NCCC) or the Los Angeles County/University of Southern California Medical Center (LAC/USCMC), between 1992 and 2007, were eligible for the present study. This study was conducted at the USC/NCCC and approved by the Institutional Review Board (IRB) of the University of Southern California for Medical Sciences. Patient data were collected retrospectively through chart review. Informed consent was signed by all patients involved in the study.
Statistical analysis: The primary endpoint in this study was time to tumor recurrence (TTR) in stage III colon cancer patients, which was defined as the time from the date of diagnosis of stage III colon cancer to the date of first recurrence, […], or until last contact if the patient was free of any tumor recurrence at the time of last contact. If a patient had not recurred, then TTR was censored at the time of death or at the last follow-up. The associations of time to tumor recurrence with patient's clinico-pathologic characteristics (age, sex, race, tumor grade, T-stage, N-stage and type of chemotherapy) were assessed using univariate survival analyses (log-rank test).
The association between each polymorphism and time to recurrence was examined using Kaplan-Meier curves and log-rank test. The distributions of polymorphisms across demographic characteristics were examined using Fisher's exact test. In the univariate survival analysis, the Pike estimate of relative risk (RR) and its associated 95% confidence interval (95% CI) was based on the log-rank test.

O=c1[nH]cc(F)c(=O)[nH]1 [5-FU, 5-Fluorouracil]
Median time to recurrence (TTR) (patients with stage III colon cancer, by adjuvant therapy, '+' = estimates were not reached): 3.9 yrs | Probability ± SE of 3-year recurrence (stage III colon cancer, by adjuvant therapy, Greenwood SE): 0.47 ± 0.06 | Relative risk (tumor recurrence, stage III colon cancer, reference = 5-FU group, Pike estimate based on log-rank test): 1
